Test results as given in US8148391B2 (Cephalon, Inc., priority 2006, dated 2012).
Where two headings read alike, the source gives them in different places. Blank lines part the entries; values can stand above or below the compound they belong to.

How the values were obtained:
[1] = target: T1, c-Met (cytoplasmic domain) (Homo sapiens, UniProt P08581); test: c-Met Kinase Assay (same methods as for ALK, with modifications); type: biochemical
T1 construct: 10 ng/mL c-Met (cytoplasmic domain, Invitrogen Corporation #PV3143); purchased Invitrogen Corporation PV3143
T1 sequence (P08581 956-1390 limits assumed): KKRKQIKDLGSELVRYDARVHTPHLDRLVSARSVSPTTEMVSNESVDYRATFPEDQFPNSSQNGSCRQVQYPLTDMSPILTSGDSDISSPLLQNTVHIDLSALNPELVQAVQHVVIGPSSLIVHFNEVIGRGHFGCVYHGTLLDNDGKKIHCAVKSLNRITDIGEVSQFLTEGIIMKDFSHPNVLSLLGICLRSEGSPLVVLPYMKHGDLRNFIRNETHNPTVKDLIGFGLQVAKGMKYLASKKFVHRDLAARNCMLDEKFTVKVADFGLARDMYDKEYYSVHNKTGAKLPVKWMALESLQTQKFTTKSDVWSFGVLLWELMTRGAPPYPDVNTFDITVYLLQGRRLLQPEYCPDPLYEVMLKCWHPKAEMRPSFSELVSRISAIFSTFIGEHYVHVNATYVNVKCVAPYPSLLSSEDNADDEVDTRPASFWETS
Summary of the method: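 Wells were coated with 10 μg/mL phospholipase C-γ substrate in TBS, and reactions were started with 10 ng/mL c-Met cytoplasmic domain and run at 37° C for 15 minutes. Phosphorylated product was detected with Eu-N1-labeled PT66 antibody. IC50 values came from sigmoidal variable-slope fits of percent inhibition versus log compound concentration.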

[2] = target: T2, baculovirus-expressed ALK (Homo sapiens, UniProt Q9UM73); test: ALK Kinase Assay (ELISA-type, time-resolved fluorescence); type: biochemical
T2 construct: host or cells: baculovirus expression system
T2 sequence (Q9UM73 19-1620): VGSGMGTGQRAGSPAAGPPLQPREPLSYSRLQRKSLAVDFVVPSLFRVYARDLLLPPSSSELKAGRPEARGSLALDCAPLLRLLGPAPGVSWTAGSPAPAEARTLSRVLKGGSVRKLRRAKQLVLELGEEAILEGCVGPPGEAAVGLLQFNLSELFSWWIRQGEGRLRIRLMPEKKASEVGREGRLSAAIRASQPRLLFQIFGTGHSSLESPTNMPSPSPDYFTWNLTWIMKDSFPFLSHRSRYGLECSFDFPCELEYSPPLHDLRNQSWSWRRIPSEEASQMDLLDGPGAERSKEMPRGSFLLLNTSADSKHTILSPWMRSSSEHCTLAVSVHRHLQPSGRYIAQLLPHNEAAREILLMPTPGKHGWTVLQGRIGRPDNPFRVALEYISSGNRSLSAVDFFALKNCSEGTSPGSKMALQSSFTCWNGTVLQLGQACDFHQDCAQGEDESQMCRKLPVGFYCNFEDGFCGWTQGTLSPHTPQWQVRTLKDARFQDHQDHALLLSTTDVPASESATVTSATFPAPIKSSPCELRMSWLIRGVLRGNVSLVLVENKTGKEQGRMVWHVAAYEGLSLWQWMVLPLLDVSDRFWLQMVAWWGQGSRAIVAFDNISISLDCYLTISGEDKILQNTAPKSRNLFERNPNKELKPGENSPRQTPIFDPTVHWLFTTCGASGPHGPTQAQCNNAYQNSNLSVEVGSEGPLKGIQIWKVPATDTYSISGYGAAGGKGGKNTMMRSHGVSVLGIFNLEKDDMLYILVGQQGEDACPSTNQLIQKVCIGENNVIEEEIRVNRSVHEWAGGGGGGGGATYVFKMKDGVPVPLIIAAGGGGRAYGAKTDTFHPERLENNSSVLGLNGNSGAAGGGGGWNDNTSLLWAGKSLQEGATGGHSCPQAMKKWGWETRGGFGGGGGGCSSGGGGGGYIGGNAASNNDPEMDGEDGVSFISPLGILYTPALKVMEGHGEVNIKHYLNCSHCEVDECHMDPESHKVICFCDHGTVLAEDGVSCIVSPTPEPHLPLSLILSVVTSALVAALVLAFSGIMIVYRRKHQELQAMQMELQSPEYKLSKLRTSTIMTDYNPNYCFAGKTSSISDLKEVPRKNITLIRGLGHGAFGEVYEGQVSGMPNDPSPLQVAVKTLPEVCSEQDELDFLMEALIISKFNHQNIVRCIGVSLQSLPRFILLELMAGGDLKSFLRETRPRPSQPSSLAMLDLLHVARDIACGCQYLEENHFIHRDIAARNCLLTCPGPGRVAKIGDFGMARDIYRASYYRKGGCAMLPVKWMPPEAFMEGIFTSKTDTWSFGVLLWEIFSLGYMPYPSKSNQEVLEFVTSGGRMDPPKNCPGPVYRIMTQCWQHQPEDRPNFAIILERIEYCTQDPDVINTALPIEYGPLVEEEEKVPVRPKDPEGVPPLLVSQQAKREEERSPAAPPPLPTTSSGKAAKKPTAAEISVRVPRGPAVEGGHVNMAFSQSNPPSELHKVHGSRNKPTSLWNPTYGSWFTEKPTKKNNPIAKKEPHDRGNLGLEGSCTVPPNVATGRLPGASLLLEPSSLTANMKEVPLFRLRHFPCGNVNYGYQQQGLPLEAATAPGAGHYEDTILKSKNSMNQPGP
Summary of the method: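 Substrate coating: phospholipase C-γ, 10 μg/mL in TBS. Kinase step: 30 ng/ml ALK, 15 min, 37° C. Detection and analysis: Eu-N1 PT66 antibody, with IC50 fitted as a sigmoidal variable-slope dose-response curve.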

[3] = 1 μM ATP (Km level), read-out: cMet Activity (c-Met Kinase Inhibition, IC50)
[4] = 1 μM ATP (Km level), read-out: ALK Activity (ALK Kinase Inhibition, IC50)
[5] = c-Met kinase inhibition, 1 μM ATP (Km level), read-out: cMet Activity
[6] = ALK kinase inhibition, 1 μM ATP (Km level), read-out: ALK Activity
[7] = c-Met kinase inhibition, 1 μM ATP, read-out: cMet Activity
[8] = ALK kinase inhibition, 1 μM ATP, read-out: ALK Activity
[9] = 1 μM ATP (Km level), 10 ng/mL c-Met, read-out: cMet Activity (c-Met kinase inhibition, IC50 class)
[10] = 1 μM ATP (Km level), 30 ng/ml ALK, 37° C., 15 minutes, read-out: ALK Activity (ALK kinase inhibition, IC50 class)

IC50 [1, 3]: 0.1 to 1 µM
IC50 [2, 4]: < 0.1 µM
SMILES: COCCN1CCc2ccc(Nc3ncc(Cl)c(Nc4ccccc4-c4nc(C(F)(F)F)c[nH]4)n3)cc2CC1 [Example 1011, 5-Chloro-N*2*-[3-(2-methoxy-ethyl)-2,3,4,5-tetrahydro-1H-benzo[d]azepin-7-yl]-N*4*-[2-(4-trifluoromethyl-1H-imidazol-2-yl)-phenyl]-pyrimidine-2,4-diamine]

IC50 [1, 3]: 1 to 10 µM
IC50 [2, 4]: < 0.1 µM
SMILES: COc1ccc(Nc2nc(Nc3ccc4c(c3)CCC(O)CC4)ncc2Cl)c(-n2cccn2)c1 (stereo not shown) [Example 623, 2-[5-Chloro-4-(4-methoxy-2-pyrazol-1-yl-phenylamino)-pyrimidin-2-ylamino]-6,7,8,9-tetrahydro-5H-benzocyclohepten-7-ol]

IC50 [1, 5]: 1 to 10 µM
IC50 [2, 6]: 0.1 to 1 µM
SMILES: COCCN1CCc2ccc(Nc3ncc(Cl)c(N[C@@H]4CCCC[C@H]4NS(=O)(=O)C4CC4)n3)cc2CC1 [Example 454, Cyclopropanesulfonic acid ((1R,2R)-2-{5-chloro-2-[3-(2-methoxy-ethyl)-2,3,4,5-tetrahydro-1H-benzo[d]azepin-7-ylamino]-pyrimidin-4-ylamino}-cyclohexyl)-amide]

IC50 [1, 7]: > 10 µM
IC50 [2, 8]: > 10 µM
SMILES: COC(=O)c1sc(-c2ccccc2)c(C)c1Nc1nc(Nc2ccc3c(c2)CCOC(=O)N3C)ncc1Cl [Example 1762, 3-[5-Chloro-2-(5-methyl-6-oxo-5,6,8,9-tetrahydro-7-oxa-5-aza-benzocyclohepten-2-ylamino)-pyrimidin-4-ylamino]-4-methyl-5-phenyl-thiophene-2-carboxylic acid methyl ester]

IC50 [1, 7]: 1 to 10 µM
IC50 [2, 8]: 0.1 to 1 µM
SMILES: CNC(=O)c1cccc(F)c1Nc1nc(Nc2ccc3c(c2)-n2c(C)cnc2CCC3)ncc1Cl [Example 1843, 2-[5-Chloro-2-(1-methyl-5,6-dihydro-4H-3,10b-diaza-benzo[e]azulen-9-ylamino)-pyrimidin-4-ylamino]-3-fluoro-N-methyl-benzamide]

IC50 [1, 5]: 0.1 to 1 µM
IC50 [2, 6]: < 0.1 µM
SMILES: CNC(=O)c1ccccc1Nc1nc(Nc2ccc3c(c2)C2CC3CN(C(C)C)C2)ncc1Cl (stereo not shown) [Example 158, 2-[5-chloro-2-(10-isopropyl-10-aza-tricyclo[6.3.1.0*2,7*]dodeca-2,4,6-trien-4-ylamino)-pyrimidin-4-ylamino]-N-methyl-benzamide]

IC50 [1, 9]: 0.1 to 1 µM
IC50 [2, 10]: 0.1 to 1 µM
SMILES: COCCN1CCc2ccc(Nc3ncc(Cl)c(Nc4ccccc4C(=O)NCCCN(C)C)n3)cc2CC1 [Example 1401, 2-{5-Chloro-2-[3-(2-methoxy-ethyl)-2,3,4,5-tetrahydro-1H-benzo[d]azepin-7-ylamino]-pyrimidin-4-ylamino}-N-(3-dimethylamino-propyl)-benzamide]

IC50 [1, 5]: > 10 µM
IC50 [2, 6]: 0.1 to 1 µM
SMILES: CCN1C(=O)CCCc2cc(Nc3ncc(Cl)c(Nc4cc(Cl)ccc4OC)n3)c(OC)cc21 [Example 137, 7-[5-Chloro-4-(5-chloro-2-methoxy-phenylamino)-pyrimidin-2-ylamino]-1-ethyl-8-methoxy-1,3,4,5-tetrahydro-benzo[b]azepin-2-one]

IC50 [1, 7]: 1 to 10 µM
IC50 [2, 8]: < 0.1 µM
SMILES: CCN1C(=O)CCC(C)(C)c2ccc(Nc3ncc(Cl)c(Nc4ccc(N5CCOCC5)cc4OC)n3)cc21 [Example 1587, 8-[5-Chloro-4-(2-methoxy-4-morpholin-4-yl-phenylamino)-pyrimidin-2-ylamino]-1-ethyl-5,5-dimethyl-1,3,4,5-tetrahydro-benzo[b]azepin-2-one]

IC50 [1, 5]: 1 to 10 µM
IC50 [2, 6]: < 0.1 µM
SMILES: CN1CCN(S(C)(=O)=O)Cc2ccc(Nc3ncc(Cl)c(N[C@@H]4CCCC[C@H]4NS(C)(=O)=O)n3)cc21 [Example 477, N-{(1R,2R)-2-[5-Chloro-2-(4-methanesulfonyl-1-methyl-2,3,4,5-tetrahydro-1H-benzo[e][1,4]diazepin-8-ylamino)-pyrimidin-4-ylamino]-cyclohexyl}-methanesulfonamide]

IC50 [1, 9]: 1 to 10 µM
IC50 [2, 10]: 1 to 10 µM
SMILES: CNC(=O)c1ccc(NC(C)=O)cc1Nc1nc(Nc2ccc3c(c2)C(C)(C)CCC(=O)N3)ncc1Cl [Example 1244, 4-Acetylamino-2-[5-chloro-2-(5,5-dimethyl-2-oxo-2,3,4,5-tetrahydro-1H-1-benzazepin-7-ylamino)-pyrimidin-4-ylamino]-N-methyl-benzamide]

IC50 [1, 5]: > 10 µM
IC50 [2, 6]: < 0.1 µM
SMILES: COCCN1CCN(C)c2cc(Nc3ncc(Cl)c(Nc4ccc(N5CCOCC5)cc4OC)n3)c(OC)cc2C1 [Example 495, 5-Chloro-N*2*-[7-methoxy-4-(2-methoxy-ethyl)-1-methyl-2,3,4,5-tetrahydro-1H-benzo[e][1,4]diazepin-8-yl]-N*4*-(2-methoxy-4-morpholin-4-yl-phenyl)-pyrimidine-2,4-diamine]

IC50 [1, 9]: > 10 µM
IC50 [2, 10]: < 0.1 µM
SMILES: COc1cc2c(cc1Nc1ncc(Cl)c(N[C@@H]3CCCC[C@H]3NS(C)(=O)=O)n1)CCC(N1CCOCC1)CC2 (stereo partly drawn) [Example 1051, N-{(1R,2R)-2-[5-Chloro-2-(3-methoxy-7-morpholin-4-yl-6,7,8,9-tetrahydro-5H-benzocyclohepten-2-ylamino)-pyrimidin-4-ylamino]-cyclohexyl}-methanesulfonamide]

IC50 [1, 9]: > 10 µM
IC50 [2, 10]: < 0.1 µM
SMILES: CNC(=O)c1ccccc1Nc1nc(Nc2cc3c(cc2OC)CC(=O)N(CCCN2CCOCC2)CC3)ncc1Cl [Example 1126, 2-{5-Chloro-2-[8-methoxy-3-(3-morpholin-4-yl-propyl)-2-oxo-2,3,4,5-tetrahydro-1H-benzo[d]azepin-7-ylamino]-pyrimidin-4-ylamino}-N-methyl-benzamide]

IC50 [1, 9]: 1 to 10 µM
IC50 [2, 10]: < 0.1 µM
SMILES: CN(CCC#N)c1cccc(F)c1Nc1nc(Nc2ccc3c(c2)C(C)(C)CCC(=O)N3)ncc1Cl [Example 1266, 3-({2-[5-Chloro-2-(5,5-dimethyl-2-oxo-2,3,4,5-tetrahydro-1H-1-benzazepin-7-ylamino)-pyrimidin-4-ylamino]-3-fluoro-phenyl}-methyl-amino)-propionitrile]

IC50 [1, 3]: > 10 µM
IC50 [2, 4]: 0.1 to 1 µM
SMILES: CC1(C)CCCOc2c(Nc3ncc(Cl)c(Nc4ccccc4-n4cccn4)n3)cccc21 [Example 885, 5-Chloro-N*2*-(5,5-dimethyl-2,3,4,5-tetrahydro-benzo[b]oxepin-9-yl)-N*4*-(2-pyrazol-1-yl-phenyl)-pyrimidine-2,4-diamine]

IC50 [1, 9]: 0.1 to 1 µM
IC50 [2, 10]: 0.1 to 1 µM
SMILES: C#CCNC(=O)c1cccc(F)c1Nc1nc(Nc2ccc3c(c2)OCCCN3C(=O)OCCCN(C)C)ncc1Cl [Example 1427, 3-[5-Chloro-4-(2-fluoro-6-prop-2-ynylcarbamoyl-phenylamino)-pyrimidin-2-ylamino]-7,8-dihydro-6H-5-oxa-9-aza-benzocycloheptene-9-carboxylic acid 3-dimethylamino-propyl ester]

IC50 [1, 5]: > 10 µM
IC50 [2, 6]: 1 to 10 µM
SMILES: COCCN1CCc2ccc(OC)c(Nc3ncc(Cl)c(N[C@@H]4CCCC[C@H]4NS(C)(=O)=O)n3)c2CC1 [Example 244, N-((1R,2R)-2-{5-Chloro-2-[7-methoxy-3-(2-methoxy-ethyl)-2,3,4,5-tetrahydro-1H-benzo[d]azepin-6-ylamino]-pyrimidin-4-ylamino}-cyclohexyl)-methanesulfonamide]

IC50 [1, 5]: > 10 µM
IC50 [2, 6]: < 0.1 µM
SMILES: CC1(C)CCC(=O)Nc2ccc(Nc3ncc(Cl)c(Nc4ccccc4-n4cccn4)n3)cc21 [Example 398, 7-[5-Chloro-4-(2-pyrazol-1-yl-phenylamino)-pyrimidin-2-ylamino]-5,5-dimethyl-1,3,4,5-tetrahydro-benzo[b]azepin-2-one]

IC50 [1, 5]: < 0.1 µM
IC50 [2, 6]: < 0.1 µM
SMILES: CCN1CCc2ccc(Nc3ncc(Br)c(Nc4ccccc4C(=O)NC)n3)cc2CC1 [Example 192, 2-[2-(3-Ethyl-2,3,4,5-tetrahydro-1H-benzo[d]azepin-7-ylamino)-5-bromo-pyrimidin-4-ylamino]-N-methyl-benzamide]

IC50 [1, 5]: 1 to 10 µM
IC50 [2, 6]: < 0.1 µM
SMILES: CCS(=O)(=O)N[C@@H]1CCCC[C@H]1Nc1nc(Nc2ccc3c(c2)CCN(CCOC)CC3)ncc1Cl [Example 453, Ethanesulfonic acid ((1R,2R)-2-{5-chloro-2-[3-(2-methoxy-ethyl)-2,3,4,5-tetrahydro-1H-benzo[d]azepin-7-ylamino]-pyrimidin-4-ylamino}-cyclohexyl)-amide]

IC50 [1, 3]: > 10 µM
IC50 [2, 4]: 0.1 to 1 µM
SMILES: CC1(C)CCCOc2c(Nc3ncc(Cl)c(N[C@@H]4[C@H](C(N)=O)[C@H]5C=C[C@@H]4C5)n3)cccc21 [Example 870, (1R,2R,3S,4S)-3-[5-Chloro-2-(5,5-dimethyl-2,3,4,5-tetrahydro-benzo[b]oxepin-9-ylamino)-pyrimidin-4-ylamino]-bicyclo[2.2.1]hept-5-ene-2-carboxylic acid amide]

IC50 [1, 7]: 1 to 10 µM
IC50 [2, 8]: < 0.1 µM
SMILES: C=CCOc1cc(N2CCOCC2)cc(F)c1Nc1nc(Nc2ccc3c(c2)CCOC(=O)N3C)ncc1Cl [Example 1700, 2-[4-(2-Allyloxy-6-fluoro-4-morpholin-4-yl-phenylamino)-5-chloro-pyrimidin-2-ylamino]-5-methyl-8,9-dihydro-5H-7-oxa-5-aza-benzocyclohepten-6-one]
